Columns and labels:
[1] = Solubility pattern of the isolated compound (qualitative); format: physicochemical; details: isolated solid
[2] = Stability in D2O, D2O/CD3OD and DMSO-d6/D2O at 37 °C by 1H NMR; format: physicochemical
Protocol: A detailed study on the behaviour of a selection of the diiron complexes in aqueous media was undertaken. Experimental procedures are provided in the Experimental Section and in the Supporting Information, with data collected in Tables 3, S3 and S4. […] The octanol/water partition coefficients (log P ow) were measured by a UV/Vis method and fall in between 0 and −1, reflecting an amphiphilic or slightly hydrophilic character. […] Conversely, those complexes with aromatic groups (i. e., 1H‐indol‐6‐yl, 2‐naphthyl and bis‐benzyl in [2A]^+, [3G]^+, [4G]^+ and [5H]^+) are less soluble in water and display increased affinity for n‐octanol (log P ow≈0). The diiron compounds are inert in aqueous solution at room temperature, and undergo a slow degradation at 37 °C. Under such conditions, a variable amount (50 to 86 %; Table S3) of the starting material was detected by ^1H NMR in D2O or D2O/CD3OD mixtures after 72 h.[33] During this time, the precipitation of a brown solid was observed, which in one case (from a [2C]CF3SO3 solution) was separated and identified as γ‐Fe2O3 by Raman analysis. In addition, headspace GC analyses performed on 5 % MeOH aqueous solutions of the compounds maintained at 37 °C allowed the identification and quantitation of the carbon monoxide released over a 48 h period (Table S4). These facts indicate that the thermal degradation process in aqueous solution leads to the progressive disassembly of the organometallic scaffold.[16] The presumed, controlled release of the iron centres (converted to iron oxide, see above) and carbon monoxide are two aspects that deserve attention with reference to the biological activity: note that the decay of ferrocene drug candidates into Fe^II ions was previously associated to their cytotoxicity,[34] while the activity of various iron carbonyl complexes was correlated to CO dissociation in the physiological media.[35]
Stability in water (D2O) and cell culture medium. The procedures are described in the Supporting Information, and data are collected in Table S3.
Table S3. Stability of diiron complexes in D2O, D2O/CD3OD, DMSO-d6/D2O and cell culture medium (DMEM-
d/CD3OD) solution at 37 °C calculated by 1H NMR (Me2SO2 internal standard).
% starting material (72 h) % starting material
Compound D O D O/CD OD DMSO-d /D O DMEM-d
[a] X = I for the stability in D 2O, X = CF3SO3 for the stability in cell culture medium. [b] Stability in D 2O and […]

MCF‐7 ADR cells = assay: MTT assay, multidrug-resistant cancer cell model overexpressing P-gp; format: cell-based, human; details: for IC50: MCF‐7 ADR cells, 72 h, MTT; for RF=IC50 (resistant cells)/IC50 (wild‐type cells): MCF‐7 ADR vs MCF‐7, 72 h
Protocol: The antiproliferative activity was also investigated in a multidrug‐resistant cancer cell model overexpressing P‐gp (MCF‐7 ADR cells).
Compounds [2B]BF4, [2C]CF3SO3, [2D]CF3SO3 and [3F]CF3SO3 were dissolved in water while the other compounds were dissolved in the minimum DMSO amount prior to cell culture testing. A calculated amount of the stock drug DMSO solution was added to the cell culture media to reach a final maximum DMSO concentration of 0.5 %, which had no effects on cell viability.
Cell cultures. Human colon (HCT‐15), pancreatic (PSN‐1) and breast (MCF‐7) carcinoma cell lines along with human melanoma cells (A375) were obtained from American Type Culture Collection (ATCC, Rockville, MD). Embryonic kidney HEK293 cells were obtained from the European Collection of Cell Cultures (ECACC, Salisbury, UK). Human ovarian 2008 cancer cells were kindly provided by Prof. G. Marverti (Dept. of Biomedical Science of Modena University, Italy). MCF‐7 ADR cells were kindly provided by Prof. N. Colabufo (Dept. Pharmacy, University of Bari, Italy). Cell lines were maintained in the logarithmic phase at 37 °C in a 5 % CO2 atmosphere using the following culture media containing 10 % fetal calf serum (Euroclone, Milan, Italy), antibiotics (50 units/mL penicillin and 50 μg/mL streptomycin) and 2 mM L‐glutamine: i) RPMI‐1640 medium (Euroclone, Milan, Italy) for PSN‐1, 2008, HCT‐15, MCF‐7 and MCF‐7 ADR cells; ii) DMEM for A375 and HEK293 cells.
MTT assay. The growth inhibitory effect towards tumour cells was evaluated by means of MTT assay as previously described.[57] Briefly, 3–8×10^3 cells/well, dependent upon the growth characteristics of the cell line, were seeded in 96‐well microplates in growth medium (100 μL). After 24 h, the medium was removed and replaced with a fresh one containing the compound to be studied at the appropriate concentration. Triplicate cultures were established for each treatment. After 24 or 72 h, each well was treated with 10 μL of a 5 mg/mL MTT saline solution, and following 5 h of incubation, 100 μL of a sodium dodecyl sulfate (SDS) solution in HCl 0.01 M were added. After an overnight incubation, cell growth inhibition was detected by measuring the absorbance of each well at 570 nm using a Bio‐Rad 680 microplate reader. Mean absorbance for each drug dose was expressed as a percentage of the control untreated well absorbance and plotted against drug concentration. IC50 values, the drug concentrations that reduce the mean absorbance at 570 nm to 50 % of those in the untreated control wells, were calculated by the four‐parameter logistic (4‐PL) model. Evaluation was based on means from at least four independent experiments.

Row | Solubility in water (qualitative) [1] | % starting material (72 h) ([2]; D2O/CD3OD 5:4 v/v) [%] | % starting material (72 h) ([2]; DMSO-d6/D2O 1:1 v/v) [%] | IC50 (MCF‐7 ADR cells) [µM] | RF=IC50 (resistant cells)/IC50 (wild‐type cells) (MCF‐7 ADR cells) | % starting material (72 h) ([2]; D2O/CD3OD 2:1 v/v) [%] | % starting material (72 h) ([2]; DMSO-d6/D2O 5:3 v/v) [%] | Substance | % starting material (72 h) ([2]; D2O)
1 | poorly soluble | 65 | 89 | 44.7 ± 6.1 | 1.2 | – | – | [Fe2Cp2(CO)2(μ‐CO){μ‐CNBn2}]X [[5H]CF3SO3] | ca. 50%
2 | soluble | – | – | > 100 | – | 81 | – | [Fe2Cp2(CO)2(μ‐CO){μ‐CNMe(CH2PO3Et2)}]X [[2B]BF4] | 85%
3 | insoluble | 51 | – | 26.9 ± 5.1 | 1.3 | – | 42 | [Fe2Cp2(CO)2(μ‐CO){μ‐CNEt(2‐naphthyl)}]BF4 [[4G]BF4] | –
4 | soluble | – | – | > 100 | – | – | – | [Fe2Cp2(CO)2(μ‐CO){μ‐CNMe(CH2CHCH2)}]X [[3F]CF3SO3] | –
5 | insoluble | – | 89 | 84.5 ± 8.5 | 1.3 | 55 | – | [Fe2Cp2(CO)2(μ‐CO){μ‐CNMe(1H‐indol‐6‐yl)}]CF3SO3 [[2A]CF3SO3] | –

Row | Substance | Solubility in water (qualitative) [1] | % starting material (72 h) ([2]; D2O/CD3OD 5:4 v/v) [%] | % starting material (72 h) ([2]; DMSO-d6/D2O 1:1 v/v) [%] | IC50 (MCF‐7 ADR cells) [µM] | RF=IC50 (resistant cells)/IC50 (wild‐type cells) (MCF‐7 ADR cells) | % starting material (72 h) ([2]; D2O/CD3OD 2:1 v/v) [%] | % starting material (72 h) ([2]; DMSO-d6/D2O 5:3 v/v) [%] | % starting material (72 h) ([2]; D2O)
6 | [Fe2Cp2(CO)2(μ‐CO){μ‐CNMe(C6H11)}]X [[2C]CF3SO3] | less soluble | – | – | 23.3 ± 4.1 | 1.3 | – | – | 75%
7 | [Fe2Cp2(CO)2(μ‐CO){μ‐CNMe(4‐C6H4OMe)}]CF3SO3 [[2D]CF3SO3] | soluble | – | – | 22.6 ± 4.2 | 1.6 | – | – | 86%
